Converted amounts (≈) assume the structure as drawn.
Columns and labels:
[1] = Acute toxicity, Karber and Behrens method, female IFFA-CREDO mice; details: mouse, in vivo
Experimental: Acute toxicity was determined by the intravenous and oral routes, using the Karber and Behrens method, in mice female IFFA-CREDO weighing 20 g (10 mice per dosage level).

[2] = test system: Staphylococcus pyogenes aureus Oxford; experiment: Antibacterial activity, dilution method: Staphylococcus pyogenes aureus Oxford; assay type: cell-based; details: Difco bacto-peptone medium
Experimental: (§1) The tests were carried out according to the dilution method.
(§2) To determine the activity against Staphylococcus, Proteus vulgaris, Klebsiella pneumoniae and Escherichia coli, use was made of Difco bacto-peptone medium, and nutrient broth T was used to investigate the activity against Pneumococcus.

[3] = test system: Streptococcus pyrogenes 5625; experiment: Antibacterial activity, dilution method: Streptococcus pyrogenes 5625; assay type: cell-based
Experimental: as §1, §2

[4] = test system: Diplococcus pneumoniae 692; experiment: Antibacterial activity, dilution method: Diplococcus pneumoniae 692; assay type: cell-based; details: for MIC: Streptococcus pneumoniae, 692, nutrient broth T
Experimental: as §1, §2

Proteus vulgaris = experiment: Antibacterial activity, dilution method: Proteus vulgaris; assay type: cell-based; details: Difco bacto-peptone medium
Experimental: as §1, §2

Klebsiella pneumoniae = experiment: Antibacterial activity, dilution method: Klebsiella pneumoniae; assay type: cell-based; details: Difco bacto-peptone medium
Experimental: as §1, §2

Escherichia coli = experiment: Antibacterial activity, dilution method: Escherichia coli; assay type: cell-based; details: Difco bacto-peptone medium
Experimental: as §1, §2

gram-positive germs = experiment: Antibacterial activity, dilution method: gram-positive germs (summary); assay type: cell-based; details: in words
Experimental: as §1, §2

[5] = Solubility in physiological saline solution; assay type: physicochemical
[6] = Sensitivity to light and air; assay type: physicochemical

| SMILES | LD50 ([1]; iv) [mg/kg] | LD50 ([1]; po) [mg/kg] | MIC [2] [µg/mL] | MIC [3] [µg/mL] | MIC [4] [µg/mL] | MIC (Proteus vulgaris) [µg/mL] | MIC (Klebsiella pneumoniae) [µg/mL] | MIC (Escherichia coli) [µg/mL] | activity against gram-positive germs (gram-positive germs) | solubility in physiological saline solution [5] | activity against Diplococcus pneumoniae ([4]; in words) | sensitivity to light and air [6] |
| --- | --- | --- | --- | --- | --- | --- | --- | --- | --- | --- | --- | --- |
| Cc1c(C2=CCC(C)CC2C(C)C)cc(C(C)C)c(O)c1S(=O)(=O)O (stereo not shown) [LJ 2128, m.menthene-thymol-2-sulfonate] | 125 | 1920 | 140 (≈ 382 µM) | 16 (≈ 43.7 µM) | 12 (≈ 32.7 µM) | > 1000 | > 1000 | > 1000 | active against gram-positive germs | soluble in physiological saline solution, giving a clear solution | – | – |
| CC1CC=C(c2ccc(O)c(S(=O)(=O)O)c2)C(C(C)C)C1 (stereo not shown) [LJ 2148, sodium m.menthene-phenol-2-sulfonate] | 305 | 2900 | 28 | 10 | 3 | > 1000 | > 1000 | > 1000 | active against gram-positive germs | soluble in physiological saline solution | particularly active against Diplococcus pneumoniae | – |
| CC1CC=C(c2ccc(O)cc2)C(C(C)C)C1 (stereo not shown) [m.menthene-phenol, 4-(3'-m.menthen-4'-yl)-phenol] | – | – | – | – | – | – | – | – | – | – | – | highly sensitive to light and air |

Source: patent US4054669A, “Phenolic menthene derivatives, therapeutic composition containing same and their use as therapeutic compositions” (Les Derives Resiniques et Terpeniques, priority 1975, dated 1977)
